13 compounds from PubChem BioAssay (NCI) can be followed below.

Common to all, as to experiment: DTP human tumour cell line panel, 48 h
Assay [1] relates to IGROV1 ovarian.
Assay [2] concerns TK-10 renal.
Assay [3] deals with MOLT-4 leukemia.
For assay [4], the system named is HCT-15 colon.
The test system of assay [5] is EKVX NSCLC.
For assay [6], the system named is SF-295 CNS.
Assay [7] deals with NCI/ADR-RES ovarian.
In assay [8] the test system is A498 renal.
Assay [9] relates to A549 NSCLC.
For assay [10], the system named is SN12C renal.

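Compound exposure: 48 hours, 5 concentrations, 96-well plates. Abbreviation: GI50, concentration required for 50% inhibition of growth. At the TGI there is no net growth.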

Turning to `CC(=O)O[C@H]1C[C@H]2[C@@H]([C@H](OC(C)=O)C[C@@H]3CC4(CC[C@@]32C)OOC2(CCCCC2)OO4)[C@@H]2CC[C@H]([C@H](C)CCC(=O)O)[C@@]12C`, the total growth inhibition concentration (TGI) is 3.9 µM in assay [1]; 27 µM in [2]; 51.6 µM in assay [3]; 17 µM in [4]; 4.76 µM in [5]; 19.1 µM in assay [6]. Also, the TGI in assay [7] came to 19 µM; in assay [8], 27.1 µM; in assay [9], 12.8 µM; in [10] it was 20.7 µM.

On to `N#C[C@H](C(=O)c1ccccc1F)c1nc2ccccc2[nH]1`, for which the TGI in assay [1], in assay [2], in assay [3], in assay [4], in assay [5] and in assay [6] was > 100 µM each time. Also, the TGI in assay [7], in assay [8], in [9] and in assay [10] was > 100 µM in each case.

As to `CCCCC1Cc2cc(OC)ccc2-c2n1c1cc(OC)ccc1[n+]2C` (stereo unspecified) (tested in a mixture with another compound), the TGI was 6.61 µM in assay [1]; 31.9 µM in [2]; > 51.6 µM in [3]; > 56.7 µM in assay [4]; 20.2 µM in assay [5]; > 37.3 µM in [6]. Also, the TGI is > 100 µM in assay [7], 83.2 µM in assay [8], > 45.7 µM in assay [9] and 7.97 µM in assay [10].

Turning to `O=C(O)Cc1ccc(Oc2nc3ccccc3nc2-c2ccccc2)cc1`, the concentration for total growth inhibition (TGI) in [1] was > 100 µM; in assay [2], > 100 µM; in assay [3], > 100 µM; in [4], > 100 µM; in assay [5], 79.5 µM; in assay [6] it was > 100 µM. Besides, the TGI in assay [7], in assay [8], in [9] and in assay [10] was > 100 µM each time.

Regarding `Cc1cc(/N=C/c2ccc(Cl)cc2)n(-c2ccccc2)n1`, the total growth inhibition concentration (TGI) in assay [1], in assay [2], in assay [3], in assay [4], in [5] and in [6] was > 100 µM throughout. For the same compound, the TGI is > 100 µM in [7], 79.7 µM in [8], > 100 µM in assay [9] and > 100 µM in [10].

As to `Nc1nc2c(c(=O)[nH]1)NC(CCNc1ccc(C(=O)O)cc1)CN2` (stereo unspecified), the TGI in assay [1], in [2], in assay [3], in assay [4], in [5] and in [6] was > 100 µM each time. Moreover, the TGI in assay [7], in assay [8], in [9] and in [10] was > 100 µM in each case.

Regarding `COC(=O)[C@]1(C)CCCC2(C)C3=C(CCC21)CC1(CC3)SCCS1` (stereo partly specified), the TGI in assay [1], in assay [2], in [3], in assay [4], in [5] and in [7] was > 10 µM each time. For the same compound, the TGI in [8], in assay [9] and in assay [10] was > 10 µM in each case.

On to `Cc1cc(OC(=O)Nc2ccc(Cl)cc2)ccc1C(=S)Nc1ccccc1`, for which the TGI in assay [1], in [3], in [4], in assay [5], in [6] and in [7] was > 100 µM throughout. The TGI in assay [8], in [9] and in [10] was > 100 µM in each case.

`COC(=O)[C@]1(C)[C@H]2C[C@H]3O[C@H]4[C@H](O)[C@@H](O)OC(CC(O)C(C5=CC(=O)OC5)C(C5=CC(=O)OC5)C(O)CC56CCCCC7[C@@H](C)[C@H](C[C@H]8[C@](C)(C(=O)OC)[C@H](O)CC[C@]78C)O[C@H]([C@@H](O)[C@H](O)O5)[C@H]6O)(CCCCC([C@@H]3C)[C@]2(C)CC[C@@H]1O)[C@H]4O` (stereo partly specified): the TGI was 1.2 µM in [1]; 0.234 µM in [2]; 0.0883 µM in assay [3]; 1.11 µM in [4]; 0.224 µM in assay [5]; 0.286 µM in assay [7]. For the same compound, the TGI in [8] is 0.737 µM; in [9], 0.182 µM; in assay [10], 0.159 µM.

Turning to `COc1cccc(/C=C2/S/C(=N/Nc3nc(C)c(C(C)=O)s3)NC2=O)c1O`, the TGI in assay [1] was > 100 µM; in [2] it was 94.2 µM; in assay [4] it was > 100 µM; in [5], 84.4 µM; in assay [6], > 100 µM; in [7], > 100 µM. The TGI in assay [8], in [9] and in assay [10] was > 100 µM each time.

For `CCN(CC)C(=S)SSCCO`, the GI50 is 24 µM in [2]; 4.7 µM in [3]; 17.9 µM in assay [4]; 20.1 µM in [5]; 33.5 µM in [6]; 17.1 µM in assay [7]. Besides, the GI50 was 85 µM in assay [8], 79.9 µM in assay [9] and 17.4 µM in assay [10]. The TGI was 40.8 µM in [2]; 21.7 µM in assay [3]; 38.4 µM in [4]; 39.7 µM in [5]; > 100 µM in [6]; 32.5 µM in assay [7]. In addition, the values for the TGI in assay [8], in [9] and in assay [10] were > 100 µM, > 100 µM and 32.2 µM, respectively.

For `COc1ccc(/C=N/n2c(Cc3ccccc3)n[nH]c2=O)cc1`, the total growth inhibition concentration (TGI) in assay [3], in assay [4], in assay [5], in assay [6], in assay [7] and in assay [8] was > 100 µM each time. The concentration for total growth inhibition (TGI) in [9] and in assay [10] was > 100 µM each time.

Take `C/C(=N\Nc1nc2ccccc2n1C)c1ccc2ccccc2n1`: the TGI was 2.74 µM in assay [1]; 34 µM in assay [2]; > 75.7 µM in [4]; 4.3 µM in [5]; 10.5 µM in [6]; 6.71 µM in assay [7]. In addition, the TGI was found to be 15.6 µM in assay [8], 16.1 µM in [9] and 16.2 µM in [10].

Usually TGI stands for the concentration at which net growth stops. Higher therefore signals lower sensitivity of the cells. The term GI50 denotes the concentration giving 50% growth inhibition.
